Patent US12258328B2, “6-membered heteroaryl-containing aminopyridine compounds as EGFR inhibitors” (YUHAN CORPORATION, priority 2021, dated 2025)
Read-outs that look alike come from different tables or passages of the source.

Experiments:
[1] = molecular target: EGFR del19/C797S (Homo sapiens, UniProt P00533, C797S/DEL746-750); test: Biochemical EGFR kinase assay (Lance Ultra TR-FRET), double mutant del19/C797S
How it was run: (§1)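 In this biochemical assay, phosphorylation after a one-hour room-temperature reaction was detected with europium-labelled anti-phosphopeptide antibody at 2 nM final concentration.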

[2] = molecular target: EGFR del19/T790M/C797S (Homo sapiens, UniProt P00533, C797S/DEL746-750/T790M); test: Biochemical EGFR kinase assay (Lance Ultra TR-FRET), triple mutant del19/T790M/C797S
Sequence of EGFR del19/T790M/C797S (P00533 with tags, fused parts or gaps DEL746-750/T790M/C797S): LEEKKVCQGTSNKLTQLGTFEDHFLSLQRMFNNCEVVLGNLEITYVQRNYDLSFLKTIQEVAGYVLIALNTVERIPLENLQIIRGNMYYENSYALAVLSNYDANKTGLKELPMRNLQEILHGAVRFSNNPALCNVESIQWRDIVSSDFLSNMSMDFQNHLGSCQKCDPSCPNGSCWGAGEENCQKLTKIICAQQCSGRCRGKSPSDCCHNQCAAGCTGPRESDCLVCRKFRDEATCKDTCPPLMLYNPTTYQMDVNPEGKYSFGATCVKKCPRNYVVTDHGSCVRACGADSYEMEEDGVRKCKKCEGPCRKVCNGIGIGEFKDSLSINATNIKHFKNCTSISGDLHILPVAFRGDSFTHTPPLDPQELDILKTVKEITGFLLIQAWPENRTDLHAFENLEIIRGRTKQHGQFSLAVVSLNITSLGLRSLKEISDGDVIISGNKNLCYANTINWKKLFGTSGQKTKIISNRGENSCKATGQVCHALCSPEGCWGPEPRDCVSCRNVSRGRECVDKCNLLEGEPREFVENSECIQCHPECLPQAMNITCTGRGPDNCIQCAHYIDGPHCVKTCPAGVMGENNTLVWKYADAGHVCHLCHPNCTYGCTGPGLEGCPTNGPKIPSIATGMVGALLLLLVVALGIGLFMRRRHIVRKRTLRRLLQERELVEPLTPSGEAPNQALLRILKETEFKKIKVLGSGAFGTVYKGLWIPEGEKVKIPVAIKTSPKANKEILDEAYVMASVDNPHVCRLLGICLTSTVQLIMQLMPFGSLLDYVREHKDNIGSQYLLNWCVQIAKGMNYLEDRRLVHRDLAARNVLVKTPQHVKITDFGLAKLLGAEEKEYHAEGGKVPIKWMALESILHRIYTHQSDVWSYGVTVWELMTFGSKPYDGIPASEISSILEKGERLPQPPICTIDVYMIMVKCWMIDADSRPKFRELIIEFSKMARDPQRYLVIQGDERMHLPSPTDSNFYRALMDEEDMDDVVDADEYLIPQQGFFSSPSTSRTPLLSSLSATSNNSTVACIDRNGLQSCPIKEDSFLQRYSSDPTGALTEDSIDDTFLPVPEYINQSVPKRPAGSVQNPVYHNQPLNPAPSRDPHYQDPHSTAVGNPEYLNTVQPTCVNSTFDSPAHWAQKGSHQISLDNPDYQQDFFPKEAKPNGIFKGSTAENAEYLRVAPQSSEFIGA
How it was run: as §1

[3] = molecular target: EGFR L858R/T790M/C797S (Homo sapiens, UniProt P00533, C797S/L858R/T790M); test: Biochemical EGFR kinase assay (Lance Ultra TR-FRET), triple mutant L858R/T790M/C797S
Sequence of EGFR L858R/T790M/C797S (P00533 25-1210 T790M/C797S/L858R): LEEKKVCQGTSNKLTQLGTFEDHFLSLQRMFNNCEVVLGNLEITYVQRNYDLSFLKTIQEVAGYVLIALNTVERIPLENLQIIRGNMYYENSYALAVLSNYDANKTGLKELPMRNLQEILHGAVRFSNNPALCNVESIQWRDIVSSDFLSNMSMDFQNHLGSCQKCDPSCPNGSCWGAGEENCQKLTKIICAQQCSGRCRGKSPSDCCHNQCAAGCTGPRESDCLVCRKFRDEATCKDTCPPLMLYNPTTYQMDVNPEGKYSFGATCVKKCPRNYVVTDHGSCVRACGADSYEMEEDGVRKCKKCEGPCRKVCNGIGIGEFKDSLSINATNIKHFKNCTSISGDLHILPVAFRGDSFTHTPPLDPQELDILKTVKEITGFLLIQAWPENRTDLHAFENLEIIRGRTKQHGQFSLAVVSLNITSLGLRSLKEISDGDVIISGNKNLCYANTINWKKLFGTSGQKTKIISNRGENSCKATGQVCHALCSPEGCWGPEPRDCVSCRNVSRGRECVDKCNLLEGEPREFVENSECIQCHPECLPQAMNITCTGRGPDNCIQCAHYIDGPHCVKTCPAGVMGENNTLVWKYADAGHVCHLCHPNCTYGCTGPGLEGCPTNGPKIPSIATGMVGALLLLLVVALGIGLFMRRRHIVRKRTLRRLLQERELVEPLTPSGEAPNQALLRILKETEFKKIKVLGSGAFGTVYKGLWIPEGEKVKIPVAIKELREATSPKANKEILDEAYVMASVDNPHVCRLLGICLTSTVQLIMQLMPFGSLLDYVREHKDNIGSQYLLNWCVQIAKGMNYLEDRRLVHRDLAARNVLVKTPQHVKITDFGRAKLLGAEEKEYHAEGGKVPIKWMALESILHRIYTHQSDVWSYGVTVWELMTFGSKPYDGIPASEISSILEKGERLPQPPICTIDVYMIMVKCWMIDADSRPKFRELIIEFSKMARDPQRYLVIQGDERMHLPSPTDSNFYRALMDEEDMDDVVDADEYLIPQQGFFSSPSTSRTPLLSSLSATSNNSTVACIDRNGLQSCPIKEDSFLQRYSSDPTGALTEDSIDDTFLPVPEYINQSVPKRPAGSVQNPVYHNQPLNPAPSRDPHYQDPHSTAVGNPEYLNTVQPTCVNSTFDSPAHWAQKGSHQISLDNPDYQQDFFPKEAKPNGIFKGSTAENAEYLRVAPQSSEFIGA
How it was run: as §1

[4] = molecular target: EGFR L858R/C797S (Homo sapiens, UniProt P00533, C797S/L858R); test: Biochemical EGFR kinase assay (Lance Ultra TR-FRET), double mutant L858R/C797S
Sequence of EGFR L858R/C797S (P00533 25-1210 C797S/L858R): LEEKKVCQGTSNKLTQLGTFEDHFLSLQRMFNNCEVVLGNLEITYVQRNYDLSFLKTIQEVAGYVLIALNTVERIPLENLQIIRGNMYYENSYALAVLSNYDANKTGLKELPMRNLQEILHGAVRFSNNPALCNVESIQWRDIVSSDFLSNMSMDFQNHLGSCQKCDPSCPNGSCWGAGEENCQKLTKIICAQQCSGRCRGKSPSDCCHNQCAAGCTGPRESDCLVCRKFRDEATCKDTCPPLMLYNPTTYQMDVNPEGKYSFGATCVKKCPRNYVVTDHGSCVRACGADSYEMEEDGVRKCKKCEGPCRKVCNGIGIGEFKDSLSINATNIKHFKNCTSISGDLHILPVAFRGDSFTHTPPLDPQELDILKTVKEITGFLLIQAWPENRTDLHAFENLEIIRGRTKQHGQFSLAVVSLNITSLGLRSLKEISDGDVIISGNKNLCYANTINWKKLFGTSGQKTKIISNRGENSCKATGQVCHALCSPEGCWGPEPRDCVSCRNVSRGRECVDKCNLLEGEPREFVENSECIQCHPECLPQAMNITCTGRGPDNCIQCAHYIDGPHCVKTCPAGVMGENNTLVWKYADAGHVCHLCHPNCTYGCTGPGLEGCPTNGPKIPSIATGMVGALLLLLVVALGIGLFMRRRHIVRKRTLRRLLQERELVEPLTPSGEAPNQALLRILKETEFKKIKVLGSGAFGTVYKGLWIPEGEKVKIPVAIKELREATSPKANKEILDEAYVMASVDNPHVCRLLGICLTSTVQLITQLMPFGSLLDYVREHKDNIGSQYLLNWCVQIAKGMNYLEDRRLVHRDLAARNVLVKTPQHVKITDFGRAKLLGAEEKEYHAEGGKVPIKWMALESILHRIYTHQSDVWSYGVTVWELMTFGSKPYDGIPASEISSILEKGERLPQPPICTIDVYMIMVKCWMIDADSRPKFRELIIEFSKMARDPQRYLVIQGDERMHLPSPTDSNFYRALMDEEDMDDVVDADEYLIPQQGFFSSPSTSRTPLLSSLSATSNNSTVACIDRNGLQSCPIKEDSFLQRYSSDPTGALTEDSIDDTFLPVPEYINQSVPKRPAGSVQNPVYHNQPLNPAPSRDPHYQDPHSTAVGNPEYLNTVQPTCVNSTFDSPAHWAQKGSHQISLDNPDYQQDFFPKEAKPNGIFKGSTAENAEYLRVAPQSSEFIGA
How it was run: as §1

[5] = molecular target: EGFR wildtype (Homo sapiens, UniProt P00533); test: Biochemical EGFR kinase assay (Lance Ultra TR-FRET), wildtype
Sequence of EGFR wildtype (P00533 25-1210): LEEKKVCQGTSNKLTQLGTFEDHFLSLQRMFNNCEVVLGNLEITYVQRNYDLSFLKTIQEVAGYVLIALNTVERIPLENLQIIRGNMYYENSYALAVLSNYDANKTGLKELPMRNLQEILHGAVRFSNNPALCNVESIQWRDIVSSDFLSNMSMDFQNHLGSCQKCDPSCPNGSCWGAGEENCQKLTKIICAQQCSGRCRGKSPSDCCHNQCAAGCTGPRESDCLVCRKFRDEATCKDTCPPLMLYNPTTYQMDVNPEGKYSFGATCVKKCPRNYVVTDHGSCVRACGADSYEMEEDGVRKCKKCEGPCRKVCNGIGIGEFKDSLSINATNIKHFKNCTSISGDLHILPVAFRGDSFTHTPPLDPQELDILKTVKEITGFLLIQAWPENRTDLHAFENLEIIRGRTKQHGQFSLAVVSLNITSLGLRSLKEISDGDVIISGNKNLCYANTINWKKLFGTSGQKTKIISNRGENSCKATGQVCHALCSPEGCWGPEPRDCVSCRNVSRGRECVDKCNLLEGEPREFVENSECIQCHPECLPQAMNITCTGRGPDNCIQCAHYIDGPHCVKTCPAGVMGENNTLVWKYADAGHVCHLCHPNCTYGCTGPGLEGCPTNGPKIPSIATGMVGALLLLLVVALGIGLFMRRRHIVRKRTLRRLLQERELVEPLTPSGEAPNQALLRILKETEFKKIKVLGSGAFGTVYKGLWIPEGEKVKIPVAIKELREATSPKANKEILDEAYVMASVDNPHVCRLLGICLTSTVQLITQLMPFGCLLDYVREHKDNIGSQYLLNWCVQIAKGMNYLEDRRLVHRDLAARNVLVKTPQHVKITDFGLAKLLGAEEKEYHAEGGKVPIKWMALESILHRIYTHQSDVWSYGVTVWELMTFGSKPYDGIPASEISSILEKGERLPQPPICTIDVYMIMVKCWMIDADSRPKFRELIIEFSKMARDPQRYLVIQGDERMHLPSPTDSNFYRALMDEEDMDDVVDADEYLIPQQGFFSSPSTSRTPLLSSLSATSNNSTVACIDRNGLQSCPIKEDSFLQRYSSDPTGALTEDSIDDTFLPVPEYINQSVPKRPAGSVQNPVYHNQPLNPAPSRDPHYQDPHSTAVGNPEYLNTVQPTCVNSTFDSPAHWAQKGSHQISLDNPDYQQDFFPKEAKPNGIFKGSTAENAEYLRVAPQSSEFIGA
How it was run: as §1

[6] = ATP at Km, read-out: IC50 del19/C797S, Km ATP
[7] = ATP at Km, read-out: IC50 del19/T790M/C797S, Km ATP
[8] = IC50 del19/T790M/C797S, 100 μM ATP
[9] = ATP at Km, read-out: IC50 L858R/T790M/C797S, Km ATP
[10] = IC50 L858R/T790M/C797S, 100 μM ATP
[11] = ATP at Km, read-out: IC50 L858R/C797S, Km ATP
[12] = ATP at Km, read-out: IC50 WT, Km ATP

Row | Compound | IC50 [1, 6] [nM] | IC50 ([1]; IC50 del19/C797S, 100 μM ATP) [nM] | IC50 [2, 7] [nM] | IC50 [2, 8] [nM] | IC50 [3, 9] [nM] | IC50 [3, 10] [nM] | IC50 [4, 11] [nM] | IC50 ([4]; IC50 L858R/C797S, 100 μM ATP) [nM] | IC50 [5, 12] [nM] | IC50 ([5]; IC50 WT, 100 μM ATP) [nM]
1 | CC(C)(O)[C@H]1CC[C@@H](Nc2cc(Nc3ccnc(-c4cnn(S(=O)(=O)C5CC5)c4)n3)ncc2-c2ccc(S(C)(=O)=O)cn2)CC1 [Example 160, 2-((1s,4s)-4-((6′-((2-(1-(Cyclopropylsulfonyl)-1H-pyrazol-4-yl)pyrimidin-4-yl)amino)-5-(methylsulfonyl)-[2,3′-bipyridin]-4′-yl)amino)cyclohexyl)propan-2-ol] | 0.5 | 1.3 | 0.5 | 0.8 | 0.2 | 0.7 | 3 | 15 | 5.1 | > 10000
2 | O=S(=O)(C1CC1)n1cc(-c2nccc(Nc3cc(NC4CCC(F)(CO)CC4)c(-c4cccc(F)n4)cn3)n2)cn1 (centres unmarked) [Example 162, (4-((6′-((2-(1-(Cyclopropylsulfonyl)-1H-pyrazol-4-yl)pyrimidin-4-yl)amino)-6-fluoro-[2,3′-bipyridin]-4′-yl)amino)-1-fluorocyclohexyl)methanol] | 13.1 | 21 | 0.5 | 1.3 | 0.4 | 3 | 19.9 | 1530 | 2970 | > 10000
3 | CC(C)(O)[C@H]1CC[C@@H](Nc2cc(Nc3ccnc(-c4cnn(S(=O)(=O)C5CC5)c4)n3)ncc2-c2cccc(F)n2)CC1 [Example 163, 2-((1s,4s)-4-((6′-((2-(1-(Cyclopropylsulfonyl)-1H-pyrazol-4-yl)pyrimidin-4-yl)amino)-6-fluoro-[2,3′-bipyridin]-4′-yl)amino)cyclohexyl)propan-2-ol] | 2.6 | 3.1 |  | 2.6 | 0.7 | 2.3 | 13 | 49.4 | 18.7 | > 10000
4 | CN(C)S(=O)(=O)c1ccc(-c2cnc(Nc3ccnc(-c4cnn(S(=O)(=O)C5CC5)c4)n3)cc2N[C@H]2CC[C@@H](CO)CC2)nc1 [Example 166, 6′-((2-(1-(Cyclopropylsulfonyl)-1H-pyrazol-4-yl)pyrimidin-4-yl)amino)-4′-(((1s,4s)-4-(hydroxymethyl)cyclohexyl)amino)-N,N-dimethyl-[2,3′-bipyridine]-5-sulfonamide] | 1.2 | 2.4 | 1.9 | 5.1 |  | 0.6 | 1.1 | 2.4 | 2 | > 10000
5 | CN(C)c1ccnc(-c2cnc(Nc3ccnc(-c4cnn(S(=O)(=O)C5CC5)c4)n3)cc2N[C@H]2CC[C@@](C)(O)CC2)c1 [Example 167, (1s,4s)-4-((6′-((2-(1-(Cyclopropylsulfonyl)-1H-pyrazol-4-yl)pyrimidin-4-yl)amino)-4-(dimethylamino)-[2,3′-bipyridin]-4′-yl)amino)-1-methylcyclohexan-1-ol] |  | 45.8 |  | 2.7 |  | 3.5 |  | 52.2 |  | > 10000
6 | CC(C)(O)c1ccc(-c2cnc(Nc3ccnc(-c4cnn(S(=O)(=O)C5CC5)c4)n3)cc2N[C@H]2CC[C@@](C)(O)CC2)nc1 [Example 168, (1s,4s)-4-((6′-((2-(1-(Cyclopropylsulfonyl)-1H-pyrazol-4-yl)pyrimidin-4-yl)amino)-5-(2-hydroxypropan-2-yl)-[2,3′-bipyridin]-4′-yl)amino)-1-methylcyclohexan-1-ol] | 0.2 | 0.4 | 0.4 | 0.3 | 0.2 | 0.2 | 0.2 | 0.5 |  | 92.2
7 | CC(C)(O)c1ccc(-c2cnc(Nc3ccnc(-c4cnn(S(=O)(=O)C5CC5)c4)n3)cc2N[C@H]2CC[C@@H](CO)CC2)nc1 [Example 170, 2-(6′-((2-(1-(Cyclopropylsulfonyl)-1H-pyrazol-4-yl)pyrimidin-4-yl)amino)-4′-(((1s,4s)-4-(hydroxymethyl)cyclohexyl)amino)-[2,3′-bipyridin]-5-yl)propan-2-ol] | 0.7 | 2 | 0.8 | 1.3 | 0.2 | 0.9 | 0.6 | 2.1 |  | 141
8 | CN(C)C[C@H]1CC[C@@H](Nc2cc(Nc3ccnc(-c4cnn(S(=O)(=O)C5CC5)c4)n3)ncc2-c2ccc(C(C)(C)O)cn2)CC1 [Example 171, 2-(6′-((2-(1-(Cyclopropylsulfonyl)-1H-pyrazol-4-yl)pyrimidin-4-yl)amino)-4′-(((1s,4s)-4-((dimethylamino)methyl)cyclohexyl)amino)-[2,3′-bipyridin]-5-yl)propan-2-ol] | 0.1 | 0.3 | 0.3 | 0.5 | 0.1 | 0.2 | 0.2 | 0.3 | 0.2 | 67.9
9 | CC(C)(O)c1ccc(-c2cnc(Nc3ccnc(-c4cnn(S(=O)(=O)C5CC5)c4)n3)cc2N[C@H]2CC[C@@H](F)CC2)nc1 [Example 173, 2-(6′-((2-(1-(Cyclopropylsulfonyl)-1H-pyrazol-4-yl)pyrimidin-4-yl)amino)-4′-(((1s,4s)-4-fluorocyclohexyl)amino)-[2,3′-bipyridin]-5-yl)propan-2-ol] | 7.9 |  | 1.8 |  | 0.9 |  | 1.6 |  | 23.2 | 
10 | CC(C)(O)c1ccc(-c2cnc(Nc3ccnc(-c4cnn(S(=O)(=O)C5CC5)c4)n3)cc2NC2CCC(F)CC2)nc1 (centres unmarked) [Example 174, 2-(6′-((2-(1-(Cyclopropylsulfonyl)-1H-pyrazol-4-yl)pyrimidin-4-yl)amino)-4′-((4-fluorocyclohexyl)amino)-[2,3′-bipyridin]-5-yl)propan-2-ol] | 7.7 |  | 2.5 |  | 1.1 |  | 1.8 |  | 23.4 | 

Continued, values first:

Row | IC50 [1, 6] [nM] | IC50 ([1]; IC50 del19/C797S, 100 μM ATP) [nM] | IC50 [2, 7] [nM] | IC50 [2, 8] [nM] | IC50 [3, 9] [nM] | IC50 [3, 10] [nM] | IC50 [4, 11] [nM] | IC50 ([4]; IC50 L858R/C797S, 100 μM ATP) [nM] | IC50 [5, 12] [nM] | IC50 ([5]; IC50 WT, 100 μM ATP) [nM] | Compound
11 | 0.9 | 1.2 | 0.1 | 0.1 | 0.1 | 0.5 | 1.9 | 12.4 | 11.6 | > 10000 | O=S(=O)(C1CC1)n1cc(-c2nccc(Nc3cc(NCC4(CO)COC4)c(-c4cccc(F)n4)cn3)n2)cn1 [Example 161, (3-(((6′-((2-(1-(Cyclopropylsulfonyl)-1H-pyrazol-4-yl)pyrimidin-4-yl)amino)-6-fluoro-[2,3′-bipyridin]-4′-yl)amino)methyl)oxetan-3-yl)methanol]
12 | 1.8 | 7.6 | 3.5 | 1.2 | 1 | 1.7 | 1.6 | 18.5 |  | > 10000 | CN(C)S(=O)(=O)c1ccc(-c2cnc(Nc3ccnc(-c4cnn(S(=O)(=O)C5CC5)c4)n3)cc2N[C@H]2CC[C@@H](C(C)(C)O)CC2)nc1 [Example 165, 6′-((2-(1-(Cyclopropylsulfonyl)-1H-pyrazol-4-yl)pyrimidin-4-yl)amino)-4′-(((1s,4s)-4-(2-hydroxypropan-2-yl)cyclohexyl)amino)-N,N-dimethyl-[2,3′-bipyridine]-5-sulfonamide]
13 | 0.5 | 1.3 | 1.3 | 0.9 |  | 0.7 | 0.4 |  |  | 416 | CC(C)(O)c1ccc(-c2cnc(Nc3ccnc(-c4cnn(S(=O)(=O)C5CC5)c4)n3)cc2N[C@H]2CC[C@@H](C(C)(C)O)CC2)nc1 [Example 169, 2-(6′-((2-(1-(Cyclopropylsulfonyl)-1H-pyrazol-4-yl)pyrimidin-4-yl)amino)-4′-(((1s,4s)-4-(2-hydroxypropan-2-yl)cyclohexyl)amino)-[2,3′-bipyridin]-5-yl)propan-2-ol]
14 | 0.3 | 0.8 | 0.7 | 0.6 | 0.2 | 0.2 | 1.3 | 4.8 | 0.4 | 93.2 | CN(C)C(=O)[C@H]1CC[C@@H](Nc2cc(Nc3ccnc(-c4cnn(S(=O)(=O)C5CC5)c4)n3)ncc2-c2ccc(C(C)(C)O)cn2)CC1 [Example 172, (1s,4s)-4-((6′-((2-(1-(Cyclopropylsulfonyl)-1H-pyrazol-4-yl)pyrimidin-4-yl)amino)-5-(2-hydroxypropan-2-yl)-[2,3′-bipyridin]-4′-yl)amino)-N,N-dimethylcyclohexane-1-carboxamide]
15 | 20.4 |  | 2.4 |  | 1.1 |  | 3.9 |  | 90.3 |  | CC(C)(O)c1ccc(-c2cnc(Nc3ccnc(-c4cnn(S(=O)(=O)C5CC5)c4)n3)cc2NC2CCC(F)(F)CC2)nc1 [Example 175, 2-(6′-((2-(1-(Cyclopropylsulfonyl)-1H-pyrazol-4-yl)pyrimidin-4-yl)amino)-4′-((4,4-difluorocyclohexyl)amino)-[2,3′-bipyridin]-5-yl)propan-2-ol]
